Reference: ChEMBL document CHEMBL1201862, “PubChem BioAssay data set” (2004)
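1) Cells in 96-well plates. 2) Compound, 48 h, 5 concentrations. 3) Linear interpolation between surrounding doses. 4) Unreached endpoint = highest concentration. GI50: concentration for 50% inhibition of growth.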 Calls of active or inactive are those of the source. No stated cut-off is given here; in the data, active = GI50 up to about 1.1 µM and inactive = higher.

What was measured:
Experiment in all cases: NCI tumour cell line growth inhibition, 48 h
TK-10 = test system: TK-10
SK-MEL-5 = test system: SK-MEL-5
U-251 = test system: U-251
OVCAR-4 = test system: OVCAR-4
SN12C = test system: SN12C
SK-MEL-2 = test system: SK-MEL-2
Malme-3M = test system: Malme-3M
HOP-92 = test system: HOP-92
HCT-116 = test system: HCT-116
CCRF-CEM = test system: CCRF-CEM
NCI-H460 = test system: NCI-H460
UO-31 = test system: UO-31
HL-60 = test system: HL-60
ACHN = test system: ACHN
RPMI-8226 = test system: RPMI-8226
UACC-257 = test system: UACC-257

Measured: GI50

NCCSc1cc(O)c2c(c1N)C(=O)c1ccccc1C2=O
inactive: TK-10 > 100 µM | SK-MEL-5 12.9 µM | U-251 58.7 µM | OVCAR-4 99.3 µM | SN12C 47.1 µM | SK-MEL-2 65.6 µM | Malme-3M 26 µM | HOP-92 60.5 µM | HCT-116 34 µM | CCRF-CEM 16.8 µM | NCI-H460 36 µM | UO-31 > 100 µM | HL-60 20.8 µM | ACHN 43.8 µM

BrC12C3C4C5C(C(C43)C13OCCO3)C52 (stereo unspecified)
inactive: TK-10 > 100 µM | SK-MEL-5 > 100 µM | U-251 > 100 µM | SK-MEL-2 > 100 µM | RPMI-8226 > 100 µM | Malme-3M > 100 µM | UACC-257 > 100 µM | HOP-92 58.1 µM | HCT-116 > 100 µM | CCRF-CEM > 100 µM | NCI-H460 > 100 µM | UO-31 > 100 µM | HL-60 > 100 µM | ACHN > 100 µM

O=c1[nH]c(S)nc2c1sc(=S)n2-c1ccccc1
inactive: TK-10 > 100 µM | SK-MEL-5 > 100 µM | U-251 > 100 µM | OVCAR-4 > 100 µM | SN12C > 100 µM | SK-MEL-2 > 100 µM | RPMI-8226 > 100 µM | Malme-3M > 100 µM | UACC-257 > 100 µM | HOP-92 55.3 µM | HCT-116 > 100 µM | CCRF-CEM > 100 µM | NCI-H460 > 100 µM | UO-31 > 100 µM | HL-60 > 100 µM | ACHN > 100 µM

COC(=O)/C(C#N)=C1\CCC(OC)N1C (stereo unspecified)
inactive: TK-10 > 100 µM | SK-MEL-5 > 100 µM | U-251 > 100 µM | OVCAR-4 > 100 µM | SN12C > 100 µM | SK-MEL-2 > 100 µM | RPMI-8226 > 100 µM | Malme-3M > 100 µM | UACC-257 > 100 µM | HCT-116 > 100 µM | CCRF-CEM > 100 µM | NCI-H460 > 100 µM | UO-31 > 100 µM | HL-60 > 100 µM | ACHN > 100 µM

Cc1cc2nc(O)c(CCC(=O)O)nc2cc1C
inactive: TK-10 > 100 µM | SK-MEL-5 > 100 µM | U-251 > 100 µM | OVCAR-4 > 100 µM | SN12C > 100 µM | SK-MEL-2 > 100 µM | RPMI-8226 > 100 µM | Malme-3M > 100 µM | UACC-257 > 100 µM | HOP-92 > 100 µM | HCT-116 > 100 µM | CCRF-CEM > 100 µM | NCI-H460 > 100 µM | UO-31 > 100 µM | HL-60 > 100 µM | ACHN > 100 µM

CCOC(=O)CCC(=O)C1c2cccc(O)c2C(=O)c2c(O)cccc21
active: SK-MEL-5 0.226 µM | U-251 0.301 µM | OVCAR-4 0.611 µM | CCRF-CEM 1.1 µM | NCI-H460 0.26 µM | UO-31 0.356 µM | HL-60 0.223 µM
inactive: TK-10 2.38 µM | SN12C 1.33 µM | Malme-3M 1.78 µM | UACC-257 1.69 µM | HOP-92 1.49 µM | HCT-116 1.31 µM | ACHN 1.43 µM

O=C1CC2=CCCC2O1 (stereo unspecified)
inactive: TK-10 > 100 µM | SK-MEL-5 > 100 µM | U-251 > 100 µM | OVCAR-4 > 100 µM | SN12C > 100 µM | SK-MEL-2 > 100 µM | RPMI-8226 > 100 µM | Malme-3M > 100 µM | UACC-257 > 100 µM | HOP-92 > 100 µM | HCT-116 > 100 µM | CCRF-CEM > 100 µM | NCI-H460 > 100 µM | UO-31 > 100 µM | HL-60 > 100 µM

CC(C)CCC[C@@H](C)C1CCC2[C@@H]3CC=C4C[C@@H](C(=O)NCC[N+](C)(C)CCCS(=O)(=O)[O-])CC[C@]4(C)C3CC[C@@]21C (stereo partly specified)
inactive: SK-MEL-5 19.9 µM | U-251 17.3 µM | OVCAR-4 20.3 µM | SN12C 17.9 µM | SK-MEL-2 18.2 µM | RPMI-8226 20.4 µM | Malme-3M 18.9 µM | UACC-257 20 µM | HCT-116 16.8 µM | CCRF-CEM 16.2 µM | NCI-H460 15.7 µM | UO-31 19.8 µM | HL-60 13.4 µM | ACHN 18.5 µM

COc1ccc([C@H]2CC3C(=O)N(c4ccc(OC)cc4)C(=O)C3c3[nH]c4ccccc4c32)cc1 (stereo partly specified)
inactive: TK-10 > 100 µM | SK-MEL-5 46.3 µM | U-251 59.6 µM | OVCAR-4 > 100 µM | SN12C 51.9 µM | SK-MEL-2 53 µM | Malme-3M 36.1 µM | UACC-257 > 100 µM | HOP-92 24 µM | HCT-116 9.31 µM | CCRF-CEM 48.4 µM | NCI-H460 18.6 µM | UO-31 > 100 µM | ACHN > 100 µM

CC(C)c1ccccc1NC(=O)CCC(=O)NN
inactive: TK-10 > 100 µM | U-251 > 100 µM | SN12C > 100 µM | SK-MEL-2 > 100 µM | RPMI-8226 > 100 µM | Malme-3M > 100 µM | UACC-257 > 100 µM | HOP-92 > 100 µM | HCT-116 > 100 µM | CCRF-CEM > 100 µM | UO-31 > 100 µM | HL-60 > 100 µM | ACHN > 100 µM

CC1CC2C3CCC4=CC(=O)C=CC4(C)C3(F)C(O)CC2(C)C1(O)C(=O)CO.Cc1nnc(NS(=O)(=O)c2ccc(/N=N/c3cc(/N=N/c4ccc(S(=O)(=O)Nc5nnc(C)s5)cc4)c4c(NC(=O)C(Cl)Cl)cccc4c3OC(=O)C(Cl)Cl)cc2)s1
inactive: TK-10 43.3 µM | SK-MEL-5 22.4 µM | U-251 37.1 µM | OVCAR-4 22.6 µM | SN12C 3.3 µM | SK-MEL-2 21.2 µM | Malme-3M 26.5 µM | UACC-257 38.5 µM | HOP-92 51.6 µM | HCT-116 15 µM | NCI-H460 21.5 µM | UO-31 46.7 µM | HL-60 9.95 µM
active: RPMI-8226 < 0.01 µM | CCRF-CEM 1.08 µM

COc1ccc(-c2cc(-c3cc(Cl)cc(Br)c3O)nc(O)n2)cc1
inactive: TK-10 26.2 µM | U-251 17 µM | OVCAR-4 5.66 µM | SN12C 15.5 µM | RPMI-8226 18.8 µM | Malme-3M 19.4 µM | UACC-257 17.7 µM | HOP-92 17.8 µM | HCT-116 12.2 µM | CCRF-CEM 19.8 µM | NCI-H460 17.9 µM | UO-31 17.3 µM | HL-60 23.2 µM | ACHN 14.2 µM

CCSc1nnc(-c2ccccc2)nc1Cc1ccc(OC)cc1
inactive: TK-10 > 100 µM | U-251 79.6 µM | OVCAR-4 > 100 µM | SN12C > 100 µM | SK-MEL-2 87.1 µM | RPMI-8226 81.8 µM | Malme-3M > 100 µM | UACC-257 56.5 µM | HOP-92 > 100 µM | HCT-116 38.5 µM | CCRF-CEM 69 µM | NCI-H460 46.5 µM | UO-31 > 100 µM | HL-60 40.5 µM | ACHN 77.8 µM

Cc1ccc2nc(NC(=O)C(=O)C(C#N)c3nc4ccccc4s3)sc2c1 (stereo unspecified)
inactive: TK-10 30.8 µM | SK-MEL-5 19.4 µM | U-251 33.7 µM | OVCAR-4 39 µM | SN12C 54 µM | SK-MEL-2 32.4 µM | RPMI-8226 28.3 µM | Malme-3M 43.7 µM | UACC-257 28 µM | HOP-92 26.4 µM | HCT-116 38.4 µM | NCI-H460 34 µM | UO-31 39.8 µM | ACHN 42.3 µM

CC1(C)Oc2ccccc2N2O[C@@H]3C(=O)N(c4ccccc4)C(=O)[C@@H]3C21c1ccccc1 (stereo partly specified)
inactive: TK-10 17.9 µM | SK-MEL-5 23 µM | U-251 25 µM | OVCAR-4 17.9 µM | SK-MEL-2 23.1 µM | RPMI-8226 37.8 µM | Malme-3M 21.8 µM | UACC-257 34 µM | HCT-116 20.8 µM | CCRF-CEM 27.7 µM | NCI-H460 28.9 µM | UO-31 66.1 µM | HL-60 > 10 µM

CSC(=O)C[C@@]12O[C@@H]([C@@H](C)C3CCC4[C@@H]5C(O)CC6=CC(=O)C=C[C@]6(C)C5CC[C@@]43C)C[C@](C)(O1)C(C)(C)O2 (stereo partly specified)
inactive: TK-10 17.8 µM | U-251 12.5 µM | OVCAR-4 13.5 µM | SN12C 16.6 µM | SK-MEL-2 22.9 µM | RPMI-8226 4.8 µM | Malme-3M 23.2 µM | UACC-257 12.6 µM | HOP-92 9.86 µM | HCT-116 12.8 µM | CCRF-CEM 3.86 µM | NCI-H460 19.1 µM | UO-31 12.3 µM | HL-60 7.85 µM

CC(=O)O[C@@H]1CC(C)C2CC2C2=C(C(O)OC2O)[C@@H]1C(C)CCC=C(C)C (stereo partly specified)
inactive: TK-10 33.3 µM | SK-MEL-5 25.3 µM | U-251 19.4 µM | OVCAR-4 24.4 µM | SN12C 18.4 µM | SK-MEL-2 29.9 µM | RPMI-8226 25.2 µM | Malme-3M 27.8 µM | UACC-257 24.1 µM | HOP-92 12.8 µM | HCT-116 18.4 µM | CCRF-CEM 24.8 µM | NCI-H460 20 µM | UO-31 22.2 µM | HL-60 20.4 µM | ACHN 31.7 µM

COC(=O)C1=Cc2cc(OC)c(OC)c(OC)c2[C@H](c2cc(OC)c(OC)c(OC)c2)C1C(=O)OC (stereo partly specified)
inactive: TK-10 > 100 µM | SK-MEL-5 > 100 µM | U-251 > 100 µM | OVCAR-4 > 100 µM | SN12C > 100 µM | RPMI-8226 > 100 µM | Malme-3M > 100 µM | UACC-257 > 100 µM | HOP-92 1.73 µM | HCT-116 > 100 µM | CCRF-CEM > 100 µM | NCI-H460 > 100 µM | UO-31 > 100 µM | HL-60 > 100 µM | ACHN > 100 µM
